Entries after “also recorded” stand apart in the source; their conditions may differ.
Assays:
COLO 205 = experiment: Soft agar cloning assay; format: cell-based; conditions: 1.25 µM SL0101 for 24 hrs prior to cloning, evaluated 7 days later, all plating densities
Protocol: The soft agar colony formation assay has been previously described. In brief, for each treatment condition, triplicate 35 mm^2 dishes were coated with a 1 ml base layer containing 0.7% agarose (Seaplaque: FMC Corp., Rockland, ME). On day 0, cells were dissociated, washed once in growth medium, and subcultured by layering various cell concentrations in 0.5 ml culture medium containing 0.3% agarose onto the base coat. Culture dishes were transferred to a refrigerator (4°C) for 15 min, to room temperature for 10 min, and then to culture incubators. An upper layer of 0.5 ml culture medium was applied on day 0. Cultures were stained with MTT (1 mg/ml) for visualization and imaging at multiple time intervals (day 7 and 14). Cumulative counts of colonies (diameters, >60 µm) and cumulative volumes of CFU (diameters >120 µm) were determined with an Omnicon FAS-II (Bausch & Lomb, Rochester, NY) following calibration with an Omnicon test plate 3 and polystyrene microspheres embedded in soft agar matrix. The evaluable region of each culture dish (35 contiguous fields equivalent to 51% of the cell layer culture volume) was analyzed. Selective scoring of viable cell groups was achieved by adjustment of the instrument detection threshold to exclude images of nonstained cellular material and debris. The data was analyzed with Lotus Symphony software.

Raf = conditions: cited from earlier work
MEK = conditions: cited from earlier work
PKC = conditions: cited from earlier work

For `CC(=O)O[C@@H]1[C@@H](OC(C)=O)[C@@H](O)[C@H](Oc2c(-c3ccc(O)cc3)oc3cc(O)cc(O)c3c2=O)O[C@H]1C` [SL0101], the “Colony formation (≥60 µm) in soft agar vs control” value (COLO 205) is listed as “increased colony formation; also recorded: Statistically significant increases in colony formation”, the “Activity against Raf” value (Raf) is listed as “no activity” and the “Activity against MEK” value (MEK) is listed as “no activity”. For the same compound, the “Activity against PKC” value (PKC) was “no activity”.
